For data set [1] the following is noted: final printed label of ACEON Tablets, cited from earlier work.
A short description of data set [2]: Particle Size Distribution, Mastersizer 2000 with cyclohexane as the dispersant. The format is physicochemical. As for the experimental part: (§1) Compressability Index, or in other words the Flowability of the two materials were determined by standard methods practiced in the art. The Particle Size Distribution was determined using a Mastersizer 2000, Version 2 instrument with cyclohexane as the dispersant.

Data set [3] in a line: Compressibility Index (Flowability) by standard methods. The data set is classed as physicochemical. Conditions: crystalline powder. As for the experimental part:
as §1

As to `CCC[C@H](N[C@@H](C)C(=O)N1[C@H](C(=O)O)C[C@@H]2CCCC[C@@H]21)C(=O)OCC` [perindopril erbumine], the solubility in alcohol entry in data set [1] (alcohol) is on record as “freely soluble”. Besides, the solubility in chloroform result in data set [1] (chloroform) is reported as “freely soluble”. For the same compound, in data set [1] (water), the solubility in water is given as 60 % w/w.
As to `CCC[C@H](N[C@@H](C)C(=O)N1[C@H](C(=O)O)C[C@@H]2CCCC[C@@H]21)C(=O)OCC` [Perindopril erbumine crystallized as per the method of U.S. ], in data set [2], the “Particle Size Distribution (10%)” value was 16.39μ (10%);, the “Particle Size Distribution (50%)” value is 70.18μ (50%); and the “Particle Size Distribution (90%)” value is on record as 188.11μ (90%). Moreover, the “Compressibility Index” value in data set [3] is reported as 20.00.
The matching figures for `CCC[C@H](N[C@@H](C)C(=O)N1[C@H](C(=O)O)C[C@@H]2CCCC[C@@H]21)C(=O)OCC` [Perindopril erbumine crystallized as per the method of the p]: 9.06μ (10%);, 36.37μ (50%);, 119.78μ (90%) and 23.8.

The values are drawn from patent US7456296B2, “Method for preparation of crystalline perindopril erbumine” (Lupin Ltd, priority 2003, dated 2008).
